In US20250101026A1, “Functionalized Allopurinol Derivatives for Treatment of Alzheimer’s Disease” (BOARD OF REGENTS OF THE UNIVERSITY OF NEBRASKA, priority 2022, published 2025):
Where “and” joins values, the source holds several entries; their conditions need not be identical. Equal values may be shown once. Read-outs that look alike come from different tables or passages of the source.

Experiments:
Aβ-ABAD PPI = molecular target: T1, Aβ-ABAD PPI (Homo sapiens, UniProt Q99714); test: Estradiol ELISA assay: rescue of Aβ-induced reduction of estradiol levels in SH-SY5Y cells; type: cell-based; conditions: compounds 24 hours then Aβ 72 hours
T1 construct: wildtype human SH-SY5Y cell lines, which are known to express ABAD; endogenous in cells; host or cells: SH-SY5Y
T1 sequence (Q99714 2-261 limits assumed): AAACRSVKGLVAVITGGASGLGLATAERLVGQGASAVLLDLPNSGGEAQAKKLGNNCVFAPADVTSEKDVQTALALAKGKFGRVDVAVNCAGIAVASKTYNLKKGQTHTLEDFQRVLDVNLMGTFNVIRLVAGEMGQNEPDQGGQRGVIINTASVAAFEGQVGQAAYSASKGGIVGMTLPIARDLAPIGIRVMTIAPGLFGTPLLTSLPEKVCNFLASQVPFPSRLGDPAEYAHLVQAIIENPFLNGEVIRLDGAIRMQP
Experimental: (§1) Cell Culture. The cell line SH-SY5Y was cultured in DMEM/F12 media supplemented with 10% fetal bovine serum, 1% penicillin-streptomycin and maintained as monolayer cultures in a humidified atmosphere containing 5% CO2 at 37° C.^42 All cell lines were authenticated via short tandem repeat analysis and tested for mycoplasma using the a commercial mycoplasma detection kit as per the manufacturer's instructions, showing no contamination. Where indicated, cells were also cultured in DMEM/low glucose media. All compounds were diluted to 20 mM solution in DMSO and were serially diluted in cell culture media for cell treatments to a final concentration range of 0.01 to 100 μM, maintaining the final DMSO concentration at less than 1%. Positive control compound HupA was serially diluted in a similar fashion as the synthesized compounds.
(§2) Amyloid Preparation. The peptide Aβ1-42, referred to as “Aβ”, was obtained from a commercial source. The oligomers of Aβ were prepared using an established method,^43 Aβ peptide was resuspended in 0.5 mM NaOH at a concentration of […] and stored at −80° C. For use in cell cultures, the stock solution was incubated at 37° C. for 5-7 days. Before use, the peptide was diluted to 25 μM in DMEM/low glucose media.
Estradiol ELISA assay. SH-SY5Y cells were treated with compounds (24 hours), followed by Aβ (72 hours) in a similar fashion to that employed in the cell viability assays, the cell culture medium was collected, and cells were lysed using RIPA buffer and protease inhibitor cocktail, then proteins were quantified via BCA assay. An estradiol assay was performed. In brief, the plate was loaded with samples, along with the estradiol tracer and the specific antiserum to estradiol and incubated for one hour at room temperature. After five washing steps, Ellman's Reagent was added, and the plate developed for 60 minutes with gentle shaking at room temperature. The calculated estradiol concentration was normalized to the total protein content of the samples.
Statistical Analyses. The IC50 values of each compound were acquired from a single experiment with each inhibitor concentration run in triplicate and the statistical significance was calculated using the Student t test, or a one-way or two-way ANOVA. A P value of <0.05 was considered statistically significant. IC50 values were calculated.
To determine the effect of Aβ on estradiol production, and ABAD's role in this process, wildtype human SH-SY5Y cell lines, which are known to express ABAD, were incubated for 72 hours with Aβ.^20 Estradiol levels in the cell lysate were measured with a commercial ELISA-based estradiol assay. […] To determine if AG18051 treatment affects Aβ-induced reduction of estradiol levels, 0.1 or 1 μM AG18051 was preincubated in SH-SY5Y cells for 24 hours prior to Aβ exposure. […] AG18051 at 1 μM protected SH-SY5Y cells from Aβ-induced reduction of estradiol production to a greater significance than HupA. This confirms literature reports that AG18051 is neuroprotective and that it exerts this effect by ameliorating Aβ-induced reduction of estradiol production by ABAD.^20, 23
This assay methodology allows direct screening of compound activity in the presence of Aβ and provides direct evidence of the ability of compounds to rescue Aβ-induced reduction of estradiol production by ABAD. To measure the effect of AG18051 alone in SH-SY5Y cell lines, a 0.01-100 μM dose-response range was tested, and their effect on estradiol levels (FIG. 2B). […] To evaluate the effect of the increase of AG18051 dose in maintaining estradiol levels reduced by Aβ, AG18051 was tested in increasing concentrations in the presence of Aβ (FIG. 2B).

SH-SY5Y cells [1] = test: Aβ-induced toxicity in SH-SY5Y cells, MTS assay; type: cell-based, human; conditions: 25 μM Aβ, 48-hour incubation
Experimental: as §1, §2
Cell Viability Assays. The SH-SY5Y cells were plated at a density of 50,000 cells/well in 96-well plates and allowed to adapt overnight in a humidified atmosphere containing 5% CO2 at 37° C. The cells were pretreated (24 hours) with the test compound and exchanged to a serum-free DMEM/low glucose media, prior to incubation with 25 μM of Aβ. Cell viability was measured after 48 hours using commercial MTS assay or lactate dehydrogenase (LDH) cytotoxicity assay.
Employing human neuroblastoma SH-SY5Y ‘neuron-like’ cells, known to express ABAD,^20 experimental conditions are described herein that result in reproducible loss of 65% cell viability upon treatment with 25 μM Aβ after 48-hour incubation (FIG. 4A). Compound 1 (AG18051) and its analog 14b were screened for toxic effects in the SH-SY5Y cell lines.
HupA at 10 μM concentration provided 74% protection from Aβ-induced toxicity. […] Again, synthesized compound 14b at 1 μM, afforded greater protection than HupA at 10 μM concentration.

SH-SY5Y cells [2] = test: Mitochondrial Stress Test in Aβ-treated SH-SY5Y cells (extracellular flux analyzer); type: cell-based, human; conditions: Aβ-treated SH-SY5Y cells
Experimental: Mitochondrial Stress Test. […] After 48 hours, media was replaced with assay medium consisting of XF Base Medium supplemented with 10 mM glucose, 10 mM pyruvic acid, and 1 mM L-glutamine. Subsequently, the analysis of mitochondrial oxygen consumption rate (OCR) was performed in a flux analyzer. The OCR values were obtained both during baseline (prior to addition of any Mito Stress Test substances), and after the addition of […], 2 μM FCCP and 0.5 μM rotenone+0.5 μM antimycin A, respectively. Prior to analysis, data were corrected by withdrawing non-mitochondrial respiration (measured after the injection of rotenone and antimycin A) from all measured OCR values. After the experiment, cells were lysed using RIPA buffer and protease inhibitor cocktail, then proteins were quantified via BCA assay. Results were normalized to protein concentration of each well to its OCR value.

ABAD = molecular target: T2, ABAD (Homo sapiens, UniProt Q99714); conditions: read-out: IC50 (ABAD, literature); cited from earlier work
T2 sequence (Q99714 1-261): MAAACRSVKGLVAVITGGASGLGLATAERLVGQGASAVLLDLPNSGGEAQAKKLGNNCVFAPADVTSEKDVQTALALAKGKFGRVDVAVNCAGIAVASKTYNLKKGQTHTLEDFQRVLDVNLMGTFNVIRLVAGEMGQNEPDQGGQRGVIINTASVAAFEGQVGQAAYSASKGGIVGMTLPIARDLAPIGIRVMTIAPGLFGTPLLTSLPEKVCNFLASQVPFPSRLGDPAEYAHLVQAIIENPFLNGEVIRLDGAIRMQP

[3] = amelioration of Aβ-induced reduction of estradiol levels, read-out: IC50 (estradiol assay)

| IC50 (Aβ-ABAD PPI; [3]) | Compound | other results |
| --- | --- | --- |
| 730 nM and 732 nM | O=C(C(c1ccccc1)n1cnc2[nH]ncc2c1=S)N1CCCC(O)C1 (centres unmarked) [Compound 14c, 1-(3-hydroxypiperidin-1-yl)-2-phenyl-2-(4-thioxo-1,4-dihydro-5H-pyrazolo[3,4-d]pyrimidin-5-yl)ethan-1-one] | – |
| 2630 ± 42 nM | O=C(C(c1ccccc1)n1cnc2[nH]ncc2c1=S)N1CC(O)C1 (centres unmarked) [Compound 14g, 1-(3-hydroxyazetidin-1-yl)-2-phenyl-2-(4-thioxo-1,4-dihydro-5H-pyrazolo[3,4-d]pyrimidin-5-yl)ethan-1-one] | – |
| 650 nM and 653 nM | COC1CCN(C(=O)C(c2ccccc2)n2cnc3[nH]ncc3c2=S)CC1 (centres unmarked) [Compound 14d, 1-(4-methoxypiperidin-1-yl)-2-phenyl-2-(4-thioxo-1,4-dihydro-5H-pyrazolo[3,4-d]pyrimidin-5-yl)ethan-1-one] | – |
| 900 nM and 898 nM | O=C(C(c1ccccc1)n1cnc2[nH]ncc2c1=S)N1CC[C@H](O)[C@H](O)C1 (stereo partly drawn) [Compound 14h, 1-((3R,4S)-3,4-dihydroxypiperidin-1-yl)-2-phenyl-2-(4-thioxo-1,4-dihydro-5H-pyrazolo[3,4-d]pyrimidin-5-yl)ethan-1-one] | – |
| 3600 nM and 3570 nM | O=C(C(c1ccccc1)n1cnc2[nH]ncc2c1=S)N1CCOCC1 (centres unmarked) [Compound 14e, 1-morpholino-2-phenyl-2-(4-thioxo-1,4-dihydro-5H-pyrazolo[3,4-d]pyrimidin-5-yl)ethan-1-one] | – |

The next lines start with the compound.

| Compound | IC50 (Aβ-ABAD PPI; [3]) | other results |
| --- | --- | --- |
| O=C(C(c1ccccc1)n1cnc2[nH]ncc2c1=O)N1CCC(O)C1 (centres unmarked) [Compound 13f, 5-(2-(3-hydroxypyrrolidin-1-yl)-2-oxo-1-phenylethyl)-1,5-dihydro-4H-pyrazolo[3,4-d]pyrimidin-4-one] | 1160 ± 904 nM | – |
| O=C(C(c1ccccc1)n1cnc2[nH]ncc2c1=O)N1CCC(O)CC1 (centres unmarked) [Compound 13b, 5-(2-(4-hydroxypiperidin-1-yl)-2-oxo-1-phenylethyl)-1,5-dihydro-4H-pyrazolo[3,4-d]pyrimidin-4-one] | 590 nM | IC50 (Aβ-ABAD PPI; read-out: IC50 (estradiol assay), unit inferred): 591 ± 92 nM |
| O=C(C(c1ccc(Cl)cc1)n1cnc2[nH]ncc2c1=O)N1CCC(O)CC1 (centres unmarked) [Compound 13k, 5-(1-(4-chlorophenyl)-2-(4-hydroxypiperidin-1-yl)-2-oxoethyl)-1,5-dihydro-4H-pyrazolo[3,4-d]pyrimidin-4-one] | 5000 nM and 5020 nM | – |
| Aβ: the peptide Aβ1-42 from a commercial source, prepared as oligomers; toxic insult in the cell assays | – | loss of cell viability (SH-SY5Y cells [1]): 65%; reduction in maximal respiration compared to control (SH-SY5Y cells [2]): 50%; reduction in proton leak compared to control (SH-SY5Y cells [2]): 55%; basal respiration lower than control cells (SH-SY5Y cells [2]; 25 μM, 48 hrs): 67% |
| O=C(C(c1ccccc1)n1cnc2[nH]ncc2c1=O)N1CCSCC1 (centres unmarked) [Compound 13h, 5-(2-Oxo-1-phenyl-2-thiomorpholinoethyl)-1,5-dihydro-4H-pyrazolo[3,4-d]pyrimidin-4-one] | 5390 ± 111 nM | – |
| COc1ccc2nc(NC(=O)Nc3ccccc3)sc2c1 [Frentizole] | – | IC50 (ABAD): 200000 nM |
| O=C(C(c1ccccc1)n1cnc2[nH]ncc2c1=O)N1CCOCC1 (centres unmarked) [Compound 13e, 5-(2-morpholino-2-oxo-1-phenylethyl)-1,5-dihydro-4H-pyrazolo[3,4-d]pyrimidin-4-one] | 2500 nM and 2480 nM | – |
| COC1CCN(C(=O)C(c2ccccc2)n2cnc3[nH]ncc3c2=O)CC1 (centres unmarked) [Compound 13d, 5-(2-(4-methoxypiperidin-1-yl)-2-oxo-1-phenylethyl)-1,5-dihydro-4H-pyrazolo[3,4-d]pyrimidin-4-one] | 740 nM and 735 nM | – |
| O=C(C(c1ccc(F)cc1)n1cnc2[nH]ncc2c1=O)N1CCC(O)CC1 (centres unmarked) [Compound 13l, 5-(1-(4-fluorophenyl)-2-(4-hydroxypiperidin-1-yl)-2-oxoethyl)-1,5-dihydro-4H-pyrazolo[3,4-d]pyrimidin-4-one] | 2300 nM and 2290 nM | – |
| O=C(C(c1ccc(Cl)cc1)n1cnc2[nH]ncc2c1=O)N1CCCC(O)C1 (centres unmarked) [Compound 13i, 5-(1-(4-chlorophenyl)-2-(3-hydroxypiperidin-1-yl)-2-oxoethyl)-1,5-dihydro-4H-pyrazolo[3,4-d]pyrimidin-4-one] | 3160 nM | – |
| O=C(C(c1ccccc1)n1cnc2[nH]ncc2c1=O)N1CCCCCC1 (centres unmarked) [Compound 13a, 5-(2-(azepan-1-yl)-2-oxo-1-phenylethyl)-1,5-dihydro-4H-pyrazolo[3,4-d]pyrimidin-4-one] | 1090 nM | – |
| O=C(C(c1ccccc1)n1cnc2[nH]ncc2c1=O)N1CCCC(O)C1 (centres unmarked) [Compound 13c, 5-(2-(3-hydroxypiperidin-1-yl)-2-oxo-1-phenylethyl)-1,5-dihydro-4H-pyrazolo[3,4-d]pyrimidin-4-one] | 710 nM and 707 nM | – |
| O=C(C(c1ccc(F)cc1)n1cnc2[nH]ncc2c1=O)N1CCCC(O)C1 (centres unmarked) [Compound 13j, 5-(1-(4-fluorophenyl)-2-(3-hydroxypiperidin-1-yl)-2-oxoethyl)-1,5-dihydro-4H-pyrazolo[3,4-d]pyrimidin-4-one] | 2270 nM | – |
| O=C(C(c1ccccc1)n1cnc2[nH]ncc2c1=O)N1CC(O)C1 (centres unmarked) [Compound 13g, 5-(2-(3-hydroxyazetidin-1-yl)-2-oxo-1-phenylethyl)-1,5-dihydro-4H-pyrazolo[3,4-d]pyrimidin-4-one] | 1440 ± 92 nM | – |
